{
  "source": "paper PMC4957640",
  "about": "(Bioorganic & medicinal chemistry, 2016)",
  "type_in_all_cases": "biochemical",
  "key": {"[1]": {"target": "cloned human κ opioid receptor (KOR) (Homo sapiens, UniProt P41145)", "sequence (P41145 whole entry)": "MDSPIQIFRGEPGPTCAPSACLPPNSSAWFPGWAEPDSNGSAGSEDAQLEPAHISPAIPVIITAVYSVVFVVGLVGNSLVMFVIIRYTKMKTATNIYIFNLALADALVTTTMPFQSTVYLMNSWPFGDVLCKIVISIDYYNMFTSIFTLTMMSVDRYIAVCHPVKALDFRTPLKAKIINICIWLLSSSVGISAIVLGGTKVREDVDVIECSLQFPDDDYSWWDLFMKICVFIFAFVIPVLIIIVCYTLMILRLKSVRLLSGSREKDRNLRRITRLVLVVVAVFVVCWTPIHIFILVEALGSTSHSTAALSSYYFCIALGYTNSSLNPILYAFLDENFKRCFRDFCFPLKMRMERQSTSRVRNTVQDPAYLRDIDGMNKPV", "test": "Inhibition of U69,593-stimulated [35S]GTPγS binding", "conditions": "for δ/κ: ratio of Ke values, selectivity for KOR relative to DOR (fold)"}, "[2]": {"target": "cloned human δ opioid receptor (DOR) (Homo sapiens, UniProt P41143)", "sequence (P41143 whole entry)": "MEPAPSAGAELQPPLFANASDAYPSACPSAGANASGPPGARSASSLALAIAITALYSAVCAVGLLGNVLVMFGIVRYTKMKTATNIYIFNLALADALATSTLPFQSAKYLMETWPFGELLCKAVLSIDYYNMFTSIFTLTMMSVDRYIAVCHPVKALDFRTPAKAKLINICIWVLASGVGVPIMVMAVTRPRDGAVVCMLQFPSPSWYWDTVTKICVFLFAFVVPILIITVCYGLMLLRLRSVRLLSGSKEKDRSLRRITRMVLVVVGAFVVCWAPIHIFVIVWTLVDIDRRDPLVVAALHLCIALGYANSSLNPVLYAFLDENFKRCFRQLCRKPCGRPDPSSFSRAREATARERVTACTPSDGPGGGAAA", "test": "Inhibition of DPDPE-stimulated [35S]GTPγS binding"}, "[3]": {"target": "cloned human μ opioid receptor (MOR) (Homo sapiens, UniProt P35372)", "sequence (P35372 whole entry)": "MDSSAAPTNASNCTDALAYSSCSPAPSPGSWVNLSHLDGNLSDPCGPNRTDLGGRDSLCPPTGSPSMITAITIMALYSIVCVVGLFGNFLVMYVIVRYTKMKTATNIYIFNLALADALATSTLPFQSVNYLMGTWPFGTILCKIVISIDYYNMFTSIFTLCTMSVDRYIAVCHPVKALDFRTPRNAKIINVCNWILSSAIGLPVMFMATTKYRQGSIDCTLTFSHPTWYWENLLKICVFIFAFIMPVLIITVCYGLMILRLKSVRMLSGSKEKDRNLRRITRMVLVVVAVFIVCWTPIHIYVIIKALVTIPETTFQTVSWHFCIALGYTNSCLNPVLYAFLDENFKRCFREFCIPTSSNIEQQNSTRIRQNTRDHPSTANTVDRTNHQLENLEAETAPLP", "test": "Inhibition of DAMGO-stimulated [35S]GTPγS binding"}},
  "data": [
    {"smiles": "CC(C)[C@@H](CN1CCC(c2ccccn2)CC1)NC(=O)[C@H]1Cc2ccc(O)cc2CN1", "note": "[Compound 2, (3R)-7-Hydroxy-N-{(1S)-2-methyl-1-[(4-pyridin-2-ylpiperidin-1-yl)methyl]propyl}-1,2,3,4-tetrahydroisoquinoline-3-carboxamide]", "values": [
      {"measurement": "Kb", "setting": "[1]", "value": "0.43 ± 0.12", "unit": "nM"},
      {"measurement": "δ/κ", "setting": "[1]", "value": "1,372"},
      {"measurement": "Kb", "setting": "[2]", "value": "590 ± 130", "unit": "nM"},
      {"measurement": "Kb", "setting": "[3]", "value": "14.5 ± 2.6", "unit": "nM"}
    ]},
    {"smiles": "CC(C)[C@@H](CN1CCC(c2cccnc2)CC1)NC(=O)[C@H]1Cc2ccc(O)cc2CN1", "note": "[Compound 3a, (3R)-7-Hydroxy-N-{(1S)-2-methyl-1-[(4-pyridin-3-ylpiperidin-1-yl)methyl]propyl}-1,2,3,4-tetrahydroisoquinoline-3-carboxamide]", "values": [
      {"measurement": "Kb", "setting": "[1]", "value": "0.51 ± 0.08", "unit": "nM"},
      {"measurement": "δ/κ", "setting": "[1]", "value": "2,235"},
      {"measurement": "Kb", "setting": "[2]", "value": "1140 ± 70", "unit": "nM"},
      {"measurement": "Kb", "setting": "[3]", "value": "45.4 ± 15", "unit": "nM"}
    ]},
    {"smiles": "CC(C)[C@@H](CN1CCC(C)(c2cccnc2)CC1)NC(=O)[C@H]1Cc2ccc(O)cc2CN1", "note": "[Compound 3b, (3R)-7-Hydroxy-N-{(1S)-2-methyl-1-[(4-methyl-4-pyridin-3-ylpiperidin-1-yl)methyl]propyl}-1,2,3,4-tetrahydroisoquinoline-3-carboxamide]", "values": [
      {"measurement": "Kb", "setting": "[1]", "value": "0.18 ± 0.01", "unit": "nM"},
      {"measurement": "δ/κ", "setting": "[1]", "value": ">16,700"},
      {"measurement": "Kb", "setting": "[2]", "value": "> 3000", "unit": "nM"},
      {"measurement": "Kb", "setting": "[3]", "value": "49.2 ± 14", "unit": "nM"}
    ]},
    {"smiles": "CC(C)[C@@H](CN1CCC(c2ccncc2)CC1)NC(=O)[C@H]1Cc2ccc(O)cc2CN1", "note": "[Compound 4a, (3R)-7-Hydroxy-N-{(1S)-2-methyl-1-[(4-pyridin-4-ylpiperidin-1-yl)methyl]propyl}-1,2,3,4-tetrahydroisoquinoline-3-carboxamide]", "values": [
      {"measurement": "Kb", "setting": "[1]", "value": "0.51 ± 0.14", "unit": "nM"},
      {"measurement": "δ/κ", "setting": "[1]", "value": "1,353"},
      {"measurement": "Kb", "setting": "[2]", "value": "690 ± 250", "unit": "nM"},
      {"measurement": "Kb", "setting": "[3]", "value": "57.1 ± 15", "unit": "nM"}
    ]},
    {"smiles": "CC(C)[C@@H](CN1CCC(C)(c2ccncc2)CC1)NC(=O)[C@H]1Cc2ccc(O)cc2CN1", "note": "[Compound 4b, (3R)-7-Hydroxy-N-{(1S)-2-methyl-1-[(4-methyl-4-pyridin-4-ylpiperidin-1-yl)methyl]propyl}-1,2,3,4-tetrahydroisoquinoline-3-carboxamide]", "values": [
      {"measurement": "Kb", "setting": "[1]", "value": "1.75 ± 0.65", "unit": "nM"},
      {"measurement": "δ/κ", "setting": "[1]", "value": "1,434"},
      {"measurement": "Kb", "setting": "[2]", "value": 2510, "unit": "nM"},
      {"measurement": "Kb", "setting": "[3]", "value": "154 ± 56", "unit": "nM"}
    ]}
  ]
}
